{"source": "patent US20260217701A1", "about": "“SELECTIVE BET INHIBITORS AND USES THEREOF” (Tay Therapeutics Limited, priority 2022, published 2026)", "tested_on": "imiquimod-induced psoriasis", "experiment": "Imiquimod-induced psoriasis model", "type": "in vivo, mice", "settings": "for PASI Scores / Number Licking / Number Licking + Scratching / Number Scratching / Distance Traveled / Number Rearings: individual animals; for Distance Traveled / Number Rearings: behavioral evaluation", "procedure,_shortened": "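Mice given topical imiquimod (5% cream) daily on depilated backs Days 1–14; Compound A in 5% DMSO/40% PEG-400/55% saline from Day 8, clobetasol topical as reference. Daily PASI (erythema, induration, peeling, each 0–4, summed) Days 8–15; spleen weight, open-field behaviour, serum IL-1B, IL-6, IL-17, TNF-α, IL-22, IL-23 at Day 15.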", "key": {"[1]": {"settings": "IMI-psoriasis model, behavioral evaluation D15, 1 mg/kg"}, "[2]": {"settings": "IMI-psoriasis model, behavioral evaluation D15, 3 mg/kg"}, "[3]": {"settings": "IMI-psoriasis model, behavioral evaluation D15, 10 mg/kg"}}, "note": "Where “and” joins values, the source holds several entries; their conditions need not be identical. Equal values may be shown once.", "data": [{"smiles": "Cn1cc(-c2ccccc2)c(-c2cn(C)c(=O)c3[nH]c(-c4cnn(C(F)(F)F)c4)cc23)cc1=O", "note": "[Compound A, 6-methyl-4-(1-methyl-2-oxo-5-phenyl-1,2-dihydropyridin-4-yl)-2-(1-(trifluoromethyl)-1H-pyrazol-4-yl)-1,6-dihydro-7H-pyrrolo[2,3-c]pyridin-7-one]", "values": [{"measurement": "PASI Scores", "setting": "IMI + Compound A 1 mg/kg, D12, 1 mg/kg", "result": "6 and 4 (4×) and 5 (2×) and 3"}, {"measurement": "PASI Scores", "setting": "IMI + Compound A 1 mg/kg, D13, 1 mg/kg", "result": "3 (4×) and 2 (2×) and 4 and 5"}, {"measurement": "PASI Scores", "setting": "IMI + Compound A 1 mg/kg, D14, 1 mg/kg", "result": "1 (2×) and 2 (3×) and 3 (3×)"}, {"measurement": "PASI Scores", "setting": "IMI + Compound A 1 mg/kg, D15, 1 mg/kg", "result": "1 (5×) and 2 (2×) and 0"}, {"measurement": "PASI Scores", "setting": "IMI + Compound A 3 mg/kg, D8 (day treatment started), 3 mg/kg", "result": "8 and 6 and 7 and 5 and 9"}, {"measurement": "PASI Scores", "setting": "IMI + Compound A 3 mg/kg, D9, 3 mg/kg", "result": "8 (3×) and 5 and 6"}, {"measurement": "PASI Scores", "setting": "IMI + Compound A 3 mg/kg, D10, 3 mg/kg", "result": "6 and 7 and 4 and 5 (2×)"}, {"measurement": "PASI Scores", "setting": "IMI + Compound A 3 mg/kg, D11, 3 mg/kg", "result": "4 (2×) and 3 (2×) and 5"}, {"measurement": "PASI Scores", "setting": "IMI + Compound A 3 mg/kg, D12, 3 mg/kg", "result": "3 and 4 and 2 and 5"}, {"measurement": "PASI Scores", "setting": "IMI + Compound A 3 mg/kg, D13, 3 mg/kg", "result": "2 (3×) and 0"}, {"measurement": "PASI Scores", "setting": "IMI + Compound A 3 mg/kg, D14, 3 mg/kg", "result": "2 and 0 (2×) and 1"}, {"measurement": "PASI Scores", "setting": "IMI + Compound A 3 mg/kg, D15, 3 mg/kg", "result": "1 (2×) and 0 (2×)"}, {"measurement": "Use Enrichment D1", "setting": "IMI-psoriasis model, D1, 1 mg/kg, per cage (two animals)", "result": 4.0}, {"measurement": "Use Enrichment D1", "setting": "IMI-psoriasis model, D1, 3 mg/kg, per cage (two animals)", "result": "4.0 and 3.5"}, {"measurement": "Use Enrichment D1", "setting": "IMI-psoriasis model, D1, 10 mg/kg, per cage (two animals)", "result": 4.0}, {"measurement": "Use Enrichment D8", "setting": "IMI-psoriasis model, D8, 1 mg/kg, per cage (two animals)", "result": "1.0 and 1.5"}, {"measurement": "Use Enrichment D10", "setting": "IMI-psoriasis model, D10, 1 mg/kg, per cage (two animals)", "result": "2.5 and 3.5 and 2.0"}, {"measurement": "Use Enrichment D10", "setting": "IMI-psoriasis model, D10, 3 mg/kg, per cage (two animals)", "result": "2.0 and 3.0"}, {"measurement": "Use Enrichment D10", "setting": "IMI-psoriasis model, D10, 10 mg/kg, per cage (two animals)", "result": "3.0 and 4.0"}, {"measurement": "Use Enrichment D11", "setting": "IMI-psoriasis model, D11, 1 mg/kg, per cage (two animals)", "result": "3.0 and 4.0 and 2.0"}, {"measurement": "Use Enrichment D11", "setting": "IMI-psoriasis model, D11, 3 mg/kg, per cage (two animals)", "result": "3.0 and 4.0"}, {"measurement": "Use Enrichment D11", "setting": "IMI-psoriasis model, D11, 10 mg/kg, per cage (two animals)", "result": "3.0 and 4.0"}, {"measurement": "Use Enrichment D12", "setting": "IMI-psoriasis model, D12, 1 mg/kg, per cage (two animals)", "result": "2.0 and 2.5 and 4.0"}, {"measurement": "Use Enrichment D12", "setting": "IMI-psoriasis model, D12, 3 mg/kg, per cage (two animals)", "result": 3.0}, {"measurement": "Use Enrichment D12", "setting": "IMI-psoriasis model, D12, 10 mg/kg, per cage (two animals)", "result": "2.0 and 4.0 and 3.0"}, {"measurement": "Use Enrichment D13", "setting": "IMI-psoriasis model, D13, 1 mg/kg, per cage (two animals)", "result": 4.0}, {"measurement": "Use Enrichment D13", "setting": "IMI-psoriasis model, D13, 3 mg/kg, per cage (two animals)", "result": 4.0}, {"measurement": "Use Enrichment D13", "setting": "IMI-psoriasis model, D13, 10 mg/kg, per cage (two animals)", "result": 4.0}, {"measurement": "Use Enrichment D14", "setting": "IMI-psoriasis model, D14, 1 mg/kg, per cage (two animals)", "result": 4.0}, {"measurement": "Use Enrichment D14", "setting": "IMI-psoriasis model, D14, 3 mg/kg, per cage (two animals)", "result": 4.0}, {"measurement": "Use Enrichment D14", "setting": "IMI-psoriasis model, D14, 10 mg/kg, per cage (two animals)", "result": 4.0}, {"measurement": "Use Enrichment D15", "setting": "IMI-psoriasis model, D15, 1 mg/kg, per cage (two animals)", "result": 4.0}, {"measurement": "Use Enrichment D15", "setting": "IMI-psoriasis model, D15, 3 mg/kg, per cage (two animals)", "result": 4.0}, {"measurement": "Use Enrichment D15", "setting": "IMI-psoriasis model, D15, 10 mg/kg, per cage (two animals)", "result": 4.0}, {"measurement": "Number Licking", "setting": "[1]", "result": "3 (2×) and 5 and 1 and 4 and 2 (2×) and 0"}, {"measurement": "Number Licking + Scratching", "setting": "[1]", "result": "3 (2×) and 5 (2×) and 8 and 2 (2×) and 0"}, {"measurement": "Number Scratching", "setting": "[1]", "result": "0 (6×) and 7 and 1"}, {"measurement": "Number Licking", "setting": "[2]", "result": "3 and 5 and 1 (3×) and 4 (2×)"}, {"measurement": "Number Licking + Scratching", "setting": "[2]", "result": "3 and 5 and 1 (3×) and 4 (2×)"}, {"measurement": "Number Scratching", "setting": "[2]", "result": 0}, {"measurement": "Number Licking", "setting": "[3]", "result": "2 (4×) and 7 and 1 and 4 and 5"}, {"measurement": "Number Licking + Scratching", "setting": "[3]", "result": "3 and 11 and 2 (3×) and 4 (2×) and 5"}, {"measurement": "Number Scratching", "setting": "[3]", "result": "1 (2×) and 4 and 0 (4×) and 2"}, {"measurement": "Distance Traveled", "setting": "IMI-psoriasis model, 1 mg/kg", "result": "18 m and 11 m and 14 m (2×) and 12 m and 16 m (2×) and 4 m"}, {"measurement": "Number Rearings", "setting": "IMI-psoriasis model, 1 mg/kg", "result": "42 and 52 and 50 and 55 and 35 and 78 and 46 and 4"}, {"measurement": "Distance Traveled", "setting": "IMI-psoriasis model, 3 mg/kg", "result": "12 m (3×) and 13 m (2×) and 8 m and 9 m"}, {"measurement": "Number Rearings", "setting": "IMI-psoriasis model, 3 mg/kg", "result": "41 and 43 and 34 (2×) and 24 and 8 and 47"}, {"measurement": "Distance Traveled", "setting": "IMI-psoriasis model, 10 mg/kg", "result": "4 m and 13 m (2×) and 10 m and 8 m and 7 m and 6 m and 11 m"}, {"measurement": "Number Rearings", "setting": "IMI-psoriasis model, 10 mg/kg", "result": "6 and 39 and 38 and 46 and 11 and 21 and 13 and 55"}, {"measurement": "Use Enrichment Mean D1-D8", "setting": "IMI-psoriasis model, mean D1-D8, 1 mg/kg, per cage (two animals)", "result": "2.50 and 2.75"}, {"measurement": "Use Enrichment Mean D1-D8", "setting": "IMI-psoriasis model, mean D1-D8, 3 mg/kg, per cage (two animals)", "result": "2.50 and 2.00 and 2.25"}, {"measurement": "Use Enrichment Mean D1-D8", "setting": "IMI-psoriasis model, mean D1-D8, 10 mg/kg, per cage (two animals)", "result": "2.50 and 2.75 and 2.00"}, {"measurement": "Use Enrichment Mean D8-D15", "setting": "IMI-psoriasis model, mean D8-D15, 1 mg/kg, per cage (two animals)", "result": "3.00 and 3.36 and 3.14"}, {"measurement": "Use Enrichment Mean D8-D15", "setting": "IMI-psoriasis model, mean D8-D15, 3 mg/kg, per cage (two animals)", "result": "3.00 and 3.14 and 2.86"}]}]}
